From the kinase profiling compilation of Christmann-Franck et al. (2016)

How the values were obtained:
Assay in all cases: KINOMEscan competition binding
Conditions in all cases: compound 10.0 µM
HIPK4 (human) = HIPK4 (human) (UniProt Q8NE63)
STK39 (human) = STK39 (human) (UniProt Q9UEW8)
[1] = test system: PIK3CA (human), P42336 [H1047L]
PAK4 (human) = PAK4 (human) (UniProt O96013)
PIP4K2B (human) = PIP4K2B (human) (UniProt P78356)
SIK1 (human) = SIK1 (human) (UniProt P57059)
ERBB2 (human) = ERBB2 (human) (UniProt P04626)
ERBB2 (human), sequence (P04626 whole entry, looked up): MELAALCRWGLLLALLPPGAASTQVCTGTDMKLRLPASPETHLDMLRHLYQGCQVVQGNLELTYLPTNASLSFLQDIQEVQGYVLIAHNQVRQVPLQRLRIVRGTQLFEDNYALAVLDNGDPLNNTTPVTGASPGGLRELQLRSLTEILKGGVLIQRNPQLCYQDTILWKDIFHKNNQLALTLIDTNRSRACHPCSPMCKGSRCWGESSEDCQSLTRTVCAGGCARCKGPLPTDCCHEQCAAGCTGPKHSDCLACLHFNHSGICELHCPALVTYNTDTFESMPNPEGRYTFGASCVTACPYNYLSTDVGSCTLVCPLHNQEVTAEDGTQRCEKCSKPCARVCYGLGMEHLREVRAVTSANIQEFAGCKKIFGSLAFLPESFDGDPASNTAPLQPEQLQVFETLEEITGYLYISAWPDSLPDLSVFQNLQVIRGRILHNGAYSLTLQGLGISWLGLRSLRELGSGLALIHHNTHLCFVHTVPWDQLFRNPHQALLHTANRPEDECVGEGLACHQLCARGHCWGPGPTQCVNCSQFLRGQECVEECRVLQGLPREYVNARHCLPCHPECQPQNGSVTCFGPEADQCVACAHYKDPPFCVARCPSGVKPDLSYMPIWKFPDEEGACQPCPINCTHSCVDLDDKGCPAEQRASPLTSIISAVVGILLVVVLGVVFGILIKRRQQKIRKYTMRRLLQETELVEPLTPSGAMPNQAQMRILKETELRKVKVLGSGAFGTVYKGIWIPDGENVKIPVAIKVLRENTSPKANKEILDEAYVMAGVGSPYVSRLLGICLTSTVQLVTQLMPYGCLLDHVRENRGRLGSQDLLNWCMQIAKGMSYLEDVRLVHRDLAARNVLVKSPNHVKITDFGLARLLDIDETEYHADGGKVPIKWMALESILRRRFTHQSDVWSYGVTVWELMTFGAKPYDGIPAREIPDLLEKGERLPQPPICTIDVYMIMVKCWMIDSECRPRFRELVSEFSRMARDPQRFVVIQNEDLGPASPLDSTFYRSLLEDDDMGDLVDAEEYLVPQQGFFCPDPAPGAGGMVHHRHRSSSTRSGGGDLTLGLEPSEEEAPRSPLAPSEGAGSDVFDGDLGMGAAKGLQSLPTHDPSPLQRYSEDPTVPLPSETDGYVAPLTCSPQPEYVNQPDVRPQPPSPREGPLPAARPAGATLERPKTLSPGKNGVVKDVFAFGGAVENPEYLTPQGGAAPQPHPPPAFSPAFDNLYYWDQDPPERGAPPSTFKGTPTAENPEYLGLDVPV

RET (human) = RET (human) (UniProt P07949)
SGK3 (human) = SGK3 (human) (UniProt Q96BR1)
MST4 (human) = MST4 (human) (UniProt Q9P289)
GAK (human) = GAK (human) (UniProt O14976)
PDGFRA (human) = PDGFRA (human) (UniProt P16234)
PLK3 (human) = PLK3 (human) (UniProt Q9H4B4)
MYLK3 (human) = MYLK3 (human) (UniProt Q32MK0)
FLT4 (human) = FLT4 (human) (UniProt P35916)
MLTK (human) = MLTK (human) (UniProt Q9NYL2)
MLTK (human), sequence (Q9NYL2 whole entry, looked up): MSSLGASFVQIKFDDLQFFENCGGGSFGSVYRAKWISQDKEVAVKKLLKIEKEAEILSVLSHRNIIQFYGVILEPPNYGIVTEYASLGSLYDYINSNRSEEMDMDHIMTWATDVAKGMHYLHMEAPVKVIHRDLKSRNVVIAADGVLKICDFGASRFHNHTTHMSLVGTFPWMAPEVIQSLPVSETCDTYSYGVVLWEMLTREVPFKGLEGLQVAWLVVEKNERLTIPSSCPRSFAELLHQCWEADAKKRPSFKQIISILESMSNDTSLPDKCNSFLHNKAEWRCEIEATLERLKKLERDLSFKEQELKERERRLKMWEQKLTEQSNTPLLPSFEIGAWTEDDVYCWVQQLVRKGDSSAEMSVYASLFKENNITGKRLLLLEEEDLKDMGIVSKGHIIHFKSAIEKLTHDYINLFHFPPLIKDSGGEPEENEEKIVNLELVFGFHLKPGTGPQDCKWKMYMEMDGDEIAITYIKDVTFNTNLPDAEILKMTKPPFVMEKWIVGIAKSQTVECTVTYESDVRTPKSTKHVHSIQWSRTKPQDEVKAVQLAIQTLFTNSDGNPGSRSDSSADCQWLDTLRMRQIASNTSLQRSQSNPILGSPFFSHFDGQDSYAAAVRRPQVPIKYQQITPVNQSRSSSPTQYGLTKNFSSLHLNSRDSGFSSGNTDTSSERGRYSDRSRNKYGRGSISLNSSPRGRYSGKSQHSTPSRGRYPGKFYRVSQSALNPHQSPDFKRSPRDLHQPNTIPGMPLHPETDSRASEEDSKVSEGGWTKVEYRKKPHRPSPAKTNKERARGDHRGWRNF

MAP2K3 (human) = MAP2K3 (human) (UniProt P46734)
BRSK2 (human) = BRSK2 (human) (UniProt Q8IWQ3)
DAPK3 (human) = DAPK3 (human) (UniProt O43293)
TBK1 (human) = TBK1 (human) (UniProt Q9UHD2)
MAP3K9 (human) = MAP3K9 (human) (UniProt P80192)
MAP4K1 (human) = MAP4K1 (human) (UniProt Q92918)
NTRK2 (human) = NTRK2 (human) (UniProt Q16620)
NTRK2 (human), sequence (Q16620 whole entry, looked up): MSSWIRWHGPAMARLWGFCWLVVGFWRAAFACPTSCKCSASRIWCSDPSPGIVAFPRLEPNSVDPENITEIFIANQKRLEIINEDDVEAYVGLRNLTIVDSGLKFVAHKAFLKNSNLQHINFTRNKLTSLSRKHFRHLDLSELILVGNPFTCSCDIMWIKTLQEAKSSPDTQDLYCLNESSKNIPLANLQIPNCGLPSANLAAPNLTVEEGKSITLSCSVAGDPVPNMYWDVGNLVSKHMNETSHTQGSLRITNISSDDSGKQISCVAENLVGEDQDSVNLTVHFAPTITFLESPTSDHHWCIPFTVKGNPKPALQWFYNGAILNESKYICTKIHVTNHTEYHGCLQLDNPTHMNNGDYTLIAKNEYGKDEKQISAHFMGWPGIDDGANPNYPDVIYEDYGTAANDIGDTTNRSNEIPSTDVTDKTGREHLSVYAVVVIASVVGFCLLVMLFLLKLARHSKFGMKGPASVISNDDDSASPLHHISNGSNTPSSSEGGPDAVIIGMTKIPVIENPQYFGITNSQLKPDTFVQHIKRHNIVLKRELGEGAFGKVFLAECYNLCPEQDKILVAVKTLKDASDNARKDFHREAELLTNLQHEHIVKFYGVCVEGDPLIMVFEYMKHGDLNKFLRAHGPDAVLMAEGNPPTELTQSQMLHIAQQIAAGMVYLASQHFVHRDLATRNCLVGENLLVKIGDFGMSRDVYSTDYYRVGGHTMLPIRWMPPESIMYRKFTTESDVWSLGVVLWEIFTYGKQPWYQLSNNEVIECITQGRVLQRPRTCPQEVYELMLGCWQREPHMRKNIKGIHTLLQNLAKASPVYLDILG

FGFR4 (human) = FGFR4 (human) (UniProt P22455)
CDK17 (human) = CDK17 (human) (UniProt Q00537)
CDK17 (human), sequence (Q00537 whole entry, looked up): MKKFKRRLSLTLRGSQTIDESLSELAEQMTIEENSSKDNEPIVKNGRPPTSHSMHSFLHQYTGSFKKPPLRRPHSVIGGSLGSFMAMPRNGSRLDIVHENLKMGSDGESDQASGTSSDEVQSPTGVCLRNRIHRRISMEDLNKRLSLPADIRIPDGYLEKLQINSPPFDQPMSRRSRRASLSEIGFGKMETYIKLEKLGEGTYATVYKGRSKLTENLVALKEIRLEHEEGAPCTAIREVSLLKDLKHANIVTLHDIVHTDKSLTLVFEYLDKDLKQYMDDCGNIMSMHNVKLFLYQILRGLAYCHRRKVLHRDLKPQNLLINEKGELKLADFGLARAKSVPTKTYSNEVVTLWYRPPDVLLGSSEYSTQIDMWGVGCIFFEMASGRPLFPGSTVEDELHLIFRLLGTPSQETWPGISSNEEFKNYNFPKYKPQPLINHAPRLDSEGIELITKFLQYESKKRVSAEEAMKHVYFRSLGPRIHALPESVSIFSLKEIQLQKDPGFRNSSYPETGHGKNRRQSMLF

MAP4K2 (human) = MAP4K2 (human) (UniProt Q12851)
MAPK10 (human) = MAPK10 (human) (UniProt P53779)
CDK13 (human) = CDK13 (human) (UniProt Q14004)
LIMK1 (human) = LIMK1 (human) (UniProt P53667)
GRK7 (human) = GRK7 (human) (UniProt Q8WTQ7)
GRK7 (human), sequence (Q8WTQ7 whole entry, looked up): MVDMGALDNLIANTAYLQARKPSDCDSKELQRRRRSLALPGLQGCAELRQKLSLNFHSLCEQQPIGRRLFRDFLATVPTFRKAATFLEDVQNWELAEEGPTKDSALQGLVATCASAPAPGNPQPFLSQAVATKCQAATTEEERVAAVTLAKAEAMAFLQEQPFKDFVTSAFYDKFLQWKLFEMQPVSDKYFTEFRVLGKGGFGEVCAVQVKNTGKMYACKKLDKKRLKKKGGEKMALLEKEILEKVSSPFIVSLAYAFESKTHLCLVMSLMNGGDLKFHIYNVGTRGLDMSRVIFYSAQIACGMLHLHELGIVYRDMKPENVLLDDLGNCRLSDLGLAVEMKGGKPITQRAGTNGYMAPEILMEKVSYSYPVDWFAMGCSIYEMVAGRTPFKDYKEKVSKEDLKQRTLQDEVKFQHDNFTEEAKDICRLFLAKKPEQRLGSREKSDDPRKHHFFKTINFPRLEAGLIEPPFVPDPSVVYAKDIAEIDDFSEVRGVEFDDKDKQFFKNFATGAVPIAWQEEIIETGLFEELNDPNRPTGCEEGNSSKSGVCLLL

PRPF4B (human) = PRPF4B (human) (UniProt Q13523)
MAPK9 (human) = MAPK9 (human) (UniProt P45984)
CDK14 (human) = CDK14 (human) (UniProt O94921)
STK33 (human) = STK33 (human) (UniProt Q9BYT3)
[2] = test system: MET (human), P08581 [M1250T]
MAP4K5 (human) = MAP4K5 (human) (UniProt Q9Y4K4)
GSK3A (human) = GSK3A (human) (UniProt P49840)
GSK3A (human), sequence (P49840 whole entry, looked up): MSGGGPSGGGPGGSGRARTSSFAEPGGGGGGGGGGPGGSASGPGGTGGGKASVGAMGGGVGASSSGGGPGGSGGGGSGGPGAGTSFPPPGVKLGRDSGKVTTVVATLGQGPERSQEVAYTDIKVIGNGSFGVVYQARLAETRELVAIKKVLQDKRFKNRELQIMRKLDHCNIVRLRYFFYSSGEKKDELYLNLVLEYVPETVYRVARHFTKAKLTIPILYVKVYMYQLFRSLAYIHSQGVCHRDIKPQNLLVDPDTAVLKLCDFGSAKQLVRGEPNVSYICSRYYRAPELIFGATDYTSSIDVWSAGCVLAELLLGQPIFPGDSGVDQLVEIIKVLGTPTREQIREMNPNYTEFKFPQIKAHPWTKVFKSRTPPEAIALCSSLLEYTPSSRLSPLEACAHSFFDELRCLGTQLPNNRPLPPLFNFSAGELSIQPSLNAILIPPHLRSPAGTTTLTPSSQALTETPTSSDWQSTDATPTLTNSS

CSNK1G2 (human) = CSNK1G2 (human) (UniProt P78368)
FES (human) = FES (human) (UniProt P07332)
CSF1R (human) = CSF1R (human) (UniProt P07333)

PIP4K2B (human), sequence (P78356 whole entry, looked up): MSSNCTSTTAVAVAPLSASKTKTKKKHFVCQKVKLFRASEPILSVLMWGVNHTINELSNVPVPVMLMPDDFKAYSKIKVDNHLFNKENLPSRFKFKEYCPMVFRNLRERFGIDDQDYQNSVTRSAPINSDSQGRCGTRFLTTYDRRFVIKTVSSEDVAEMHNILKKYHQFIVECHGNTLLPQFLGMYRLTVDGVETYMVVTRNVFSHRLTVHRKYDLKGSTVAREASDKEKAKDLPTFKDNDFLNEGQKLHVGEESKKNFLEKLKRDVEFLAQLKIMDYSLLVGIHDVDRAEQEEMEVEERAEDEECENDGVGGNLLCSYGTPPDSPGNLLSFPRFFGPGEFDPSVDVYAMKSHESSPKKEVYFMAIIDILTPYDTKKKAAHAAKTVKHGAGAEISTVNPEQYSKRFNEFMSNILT

Row | SMILES | kinase still bound, per cent of control (HIPK4 (human)) [%] | kinase still bound, per cent of control (STK39 (human)) [%] | kinase still bound, per cent of control [1] [%] | kinase still bound, per cent of control (PAK4 (human)) [%] | kinase still bound, per cent of control (PIP4K2B (human)) [%] | kinase still bound, per cent of control (SIK1 (human)) [%] | kinase still bound, per cent of control (ERBB2 (human)) [%] | kinase still bound, per cent of control (RET (human)) [%] | kinase still bound, per cent of control (SGK3 (human)) [%] | kinase still bound, per cent of control (MST4 (human)) [%] | kinase still bound, per cent of control (GAK (human)) [%] | kinase still bound, per cent of control (PDGFRA (human)) [%] | kinase still bound, per cent of control (PLK3 (human)) [%] | kinase still bound, per cent of control (MYLK3 (human)) [%] | kinase still bound, per cent of control (FLT4 (human)) [%] | kinase still bound, per cent of control (MLTK (human)) [%] | kinase still bound, per cent of control (BRSK2 (human)) [%] | kinase still bound, per cent of control (DAPK3 (human)) [%] | kinase still bound, per cent of control (TBK1 (human)) [%] | kinase still bound, per cent of control (MAP3K9 (human)) [%] | other results
1 | CCCS(=O)(=O)Nc1ccc(F)c(C(=O)c2c[nH]c3ncc(Cl)cc23)c1F | 34 | 100 | 100 | 57 | 100 | 2.6 | 78 | 76 | 49 | 96 | 40 | 0.2 | 96 | 41 | 61 | 6 | 86 | 85 | 100 | 94 | kinase still bound, per cent of control (MAP2K3 (human)): 53%; kinase still bound, per cent of control (MAP4K1 (human)): 70%; kinase still bound, per cent of control (NTRK2 (human)): 82%; kinase still bound, per cent of control (FGFR4 (human)): 100%; kinase still bound, per cent of control (CDK17 (human)): 56%; kinase still bound, per cent of control (MAP4K2 (human)): 74%; kinase still bound, per cent of control (MAPK10 (human)): 90%; kinase still bound, per cent of control (CDK13 (human)): 100%; kinase still bound, per cent of control (LIMK1 (human)): 46%; kinase still bound, per cent of control (GRK7 (human)): 76%; kinase still bound, per cent of control (PRPF4B (human)): 82%; kinase still bound, per cent of control (MAPK9 (human)): 71%; kinase still bound, per cent of control (CDK14 (human)): 100%; kinase still bound, per cent of control (STK33 (human)): 85%; kinase still bound, per cent of control [2]: 78%; kinase still bound, per cent of control (MAP4K5 (human)): 22%; kinase still bound, per cent of control (GSK3A (human)): 100%
2 | CCc1nc(-c2cccc(C)c2)c(-c2ccnc(NC(=O)c3ccccc3)c2)s1 | 97 | 100 | 100 | 86 | 93 | 100 | 43 | 66 | 100 | 100 | 4.4 | 84 | 98 | 93 | 27 | 9.4 | 95 | 83 | 100 | 94 | kinase still bound, per cent of control (CSNK1G2 (human)): 19%; kinase still bound, per cent of control (MAP2K3 (human)): 96%; kinase still bound, per cent of control (FES (human)): 97%; kinase still bound, per cent of control (MAP4K1 (human)): 86%; kinase still bound, per cent of control (NTRK2 (human)): 100%; kinase still bound, per cent of control (FGFR4 (human)): 100%; kinase still bound, per cent of control (CDK17 (human)): 99%; kinase still bound, per cent of control (MAP4K2 (human)): 93%; kinase still bound, per cent of control (MAPK10 (human)): 0%; kinase still bound, per cent of control (CSF1R (human)): 76%; kinase still bound, per cent of control (CDK13 (human)): 100%; kinase still bound, per cent of control (LIMK1 (human)): 90%; kinase still bound, per cent of control (GRK7 (human)): 100%; kinase still bound, per cent of control (PRPF4B (human)): 80%; kinase still bound, per cent of control (MAPK9 (human)): 0%; kinase still bound, per cent of control (CDK14 (human)): 99%; kinase still bound, per cent of control (STK33 (human)): 97%; kinase still bound, per cent of control [2]: 100%; kinase still bound, per cent of control (GSK3A (human)): 100%
3 | N#C/C(=C1/Nc2ccccc2S1)c1ccnc(NCCc2cccnc2)n1 | 42 | 100 | 85 | 78 | 26 | 100 | 8.5 | 100 | 100 | 100 | 4.6 | 100 | 12 | 100 | 100 | 97 | 100 | 45 | 81 | 74 | kinase still bound, per cent of control (CSNK1G2 (human)): 77%; kinase still bound, per cent of control (MAP2K3 (human)): 33%; kinase still bound, per cent of control (FES (human)): 100%; kinase still bound, per cent of control (MAP4K1 (human)): 100%; kinase still bound, per cent of control (NTRK2 (human)): 56%; kinase still bound, per cent of control (FGFR4 (human)): 100%; kinase still bound, per cent of control (CDK17 (human)): 98%; kinase still bound, per cent of control (MAP4K2 (human)): 36%; kinase still bound, per cent of control (CSF1R (human)): 98%; kinase still bound, per cent of control (CDK13 (human)): 61%; kinase still bound, per cent of control (LIMK1 (human)): 78%; kinase still bound, per cent of control (GRK7 (human)): 47%; kinase still bound, per cent of control (PRPF4B (human)): 79%; kinase still bound, per cent of control (MAPK9 (human)): 0.25%; kinase still bound, per cent of control (CDK14 (human)): 100%; kinase still bound, per cent of control (STK33 (human)): 86%; kinase still bound, per cent of control [2]: 100%; kinase still bound, per cent of control (MAP4K5 (human)): 94%; kinase still bound, per cent of control (GSK3A (human)): 0.6%
4 | CCN(CCO)CCCOc1ccc2c(Nc3cc(CC(=O)Nc4cccc(F)c4)[nH]n3)ncnc2c1 | 4.5 | 100 | 73 | 100 | 100 | 88 | 13 | 0.25 | 100 | 37 | 21 | 0 | 89 | 98 | 38 | 63 | 100 | 82 | 90 | 98 | kinase still bound, per cent of control (CSNK1G2 (human)): 76%; kinase still bound, per cent of control (FES (human)): 100%; kinase still bound, per cent of control (MAP4K1 (human)): 76%; kinase still bound, per cent of control (NTRK2 (human)): 8.2%; kinase still bound, per cent of control (FGFR4 (human)): 100%; kinase still bound, per cent of control (CDK17 (human)): 73%; kinase still bound, per cent of control (MAP4K2 (human)): 29%; kinase still bound, per cent of control (MAPK10 (human)): 41%; kinase still bound, per cent of control (CSF1R (human)): 5%; kinase still bound, per cent of control (CDK13 (human)): 66%; kinase still bound, per cent of control (LIMK1 (human)): 100%; kinase still bound, per cent of control (GRK7 (human)): 54%; kinase still bound, per cent of control (PRPF4B (human)): 67%; kinase still bound, per cent of control (MAPK9 (human)): 46%; kinase still bound, per cent of control (CDK14 (human)): 100%; kinase still bound, per cent of control (STK33 (human)): 51%; kinase still bound, per cent of control [2]: 52%; kinase still bound, per cent of control (MAP4K5 (human)): 0.95%; kinase still bound, per cent of control (GSK3A (human)): 100%
